The values below come from patent publication US7635716B2, “Substituted cyclopentanes or cyclopentanones as therapeutic agents” (Allergan, Inc., priority 2005, dated 2009).

Like-named read-outs stand apart in the source and are kept apart here.

The target of data set [1] is T1, hDP/Gqs5 (Homo sapiens, UniProt Q13258).
T1 construct: expressed in transfected cells; host or cells: HEK-293(EBNA) cells
T1 sequence (Q13258 1-359): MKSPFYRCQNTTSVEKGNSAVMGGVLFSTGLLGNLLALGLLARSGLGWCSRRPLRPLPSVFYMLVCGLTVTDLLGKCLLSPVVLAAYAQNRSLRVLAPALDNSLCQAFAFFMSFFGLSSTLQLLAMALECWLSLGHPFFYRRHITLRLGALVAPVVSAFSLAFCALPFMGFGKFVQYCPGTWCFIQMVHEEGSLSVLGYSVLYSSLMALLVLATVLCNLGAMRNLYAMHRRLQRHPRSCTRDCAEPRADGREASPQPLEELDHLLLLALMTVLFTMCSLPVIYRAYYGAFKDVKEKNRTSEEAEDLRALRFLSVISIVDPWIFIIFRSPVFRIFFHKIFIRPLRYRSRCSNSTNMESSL
Kind of data set: FLIPR calcium signal, HEK-293(EBNA) cells. The format is cell-based. How it is done: (§1) HEK-293(EBNA) cells, stably expressing one type or subtype of recombinant human prostaglandin receptors (prostaglandin receptors expressed: hDP/Gqs5; hEP1; hEP2/Gqs5; hEP3A/Gqi5; hEP4/Gqs5; hFP; hIP; hTP), were cultured in 100 mm culture dishes in high-glucose DMEM medium containing 10% fetal bovine serum, 2 mM 1-glutamine, 250 μg/ml geneticin (G418) and 200 μg/ml hygromycin B as selection markers, and 100 units/ml penicillin G, 100 μg/ml streptomycin and 0.25 μg/ml amphotericin B.
(§2) Cells were seeded at a density of 5×10^4 cells per well in Biocoat® Poly-D-lysine-coated black-wall, clear-bottom 96-well plates (Becton-Dickinson) and allowed to attach overnight in an incubator at 37° C. Cells were then washed two times with HBSS-HEPES buffer (Hanks Balanced Salt Solution without bicarbonate and phenol red, 20 mM HEPES, pH 7.4) using a Denley Cellwash plate washer (Labsystems). After 45 minutes of dye-loading in the dark, using the calcium-sensitive dye Fluo-4 AM at a final concentration of 2 μM, plates were washed four times with HBSS-HEPES buffer to remove excess dye leaving 100 μl in each well. Plates were re-equilibrated to 37° C. for a few minutes.
(§3) Cells were excited with an Argon laser at 488 nm, and emission was measured through a 510-570 nm bandwidth emission filter (FLIPR™, Molecular Devices, Sunnyvale, Calif.). Drug solution was added in a 50 μl volume to each well to give the desired final concentration. The peak increase in fluorescence intensity was recorded for each well. On each plate, four wells each served as negative (HBSS-HEPES buffer) and positive controls (standard agonists: BW245C (hDP); PGE2 (hEP1; hEP2/Gqs5; hEP3A/Gqi5; hEP4/Gqs5); PGF2. (hFP); carbacyclin (hIP); U-46619 (hTP), depending on receptor). The peak fluorescence change in each drug-containing well was then expressed relative to the controls.
(§4) Compounds were tested in a high-throughput (HTS) or concentration-response (CoRe) format. In the HTS format, forty-four compounds per plate were examined in duplicates at a concentration of 10^−5 M. To generate concentration-response curves, four compounds per plate were tested in duplicates in a concentration range between 10^−5 and 10^−11 M. The duplicate values were averaged. In either, HTS or CoRe format each compound was tested on at least 3 separate plates using cells from different passages to give an n≧3.

Data set [2] has as its target T2, hEP2/Gqs5 (Homo sapiens, UniProt P43116).
T2 construct: expressed in transfected cells; host or cells: HEK-293(EBNA) cells
Kind of data set: FLIPR calcium signal, HEK-293(EBNA) cells. To be noted: Table 1, first part; triplicate; read-out: functional data (EC50) hEP2. It counts as cell-based. How it is done:
as §1, §2, §3, §4

In data set [3] the target is T3, hTP (Homo sapiens, UniProt P21731).
T3 construct: expressed in transfected cells; host or cells: HEK-293(EBNA) cells
T3 sequence (P21731 1-343): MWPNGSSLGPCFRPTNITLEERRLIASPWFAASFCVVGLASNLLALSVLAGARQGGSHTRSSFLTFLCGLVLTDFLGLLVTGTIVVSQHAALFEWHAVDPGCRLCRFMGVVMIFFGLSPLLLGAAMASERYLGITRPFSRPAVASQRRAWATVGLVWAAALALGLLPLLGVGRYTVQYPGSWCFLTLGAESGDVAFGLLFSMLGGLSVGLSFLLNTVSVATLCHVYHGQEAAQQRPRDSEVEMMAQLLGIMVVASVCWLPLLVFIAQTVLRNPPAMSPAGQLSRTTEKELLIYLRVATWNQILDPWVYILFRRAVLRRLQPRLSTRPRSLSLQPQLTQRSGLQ
In words: FLIPR calcium signal, HEK-293(EBNA) cells. The format is cell-based. Here is the method:
as §1, §2, §3, §4

The target of data set [4] is T4, hEP4/Gqs5 (Homo sapiens, UniProt P35408).
T4 construct: expressed in transfected cells; host or cells: HEK-293(EBNA) cells
In words: FLIPR calcium signal, HEK-293(EBNA) cells. It counts as cell-based. Here is the method: as §1, §2, §3, §4

Data set [5] addresses T5, hFP (Homo sapiens, UniProt P43088).
T5 construct: expressed in transfected cells; host or cells: HEK-293(EBNA) cells
Kind of data set: FLIPR calcium signal, HEK-293(EBNA) cells. The format is cell-based. How it is done:
as §1, §2, §3, §4

Data set [6] concerns the target T6, hEP3A/Gqi5 (Homo sapiens, UniProt P43115).
T6 construct: expressed in transfected cells; host or cells: HEK-293(EBNA) cells
T6 sequence (P43115 1-390): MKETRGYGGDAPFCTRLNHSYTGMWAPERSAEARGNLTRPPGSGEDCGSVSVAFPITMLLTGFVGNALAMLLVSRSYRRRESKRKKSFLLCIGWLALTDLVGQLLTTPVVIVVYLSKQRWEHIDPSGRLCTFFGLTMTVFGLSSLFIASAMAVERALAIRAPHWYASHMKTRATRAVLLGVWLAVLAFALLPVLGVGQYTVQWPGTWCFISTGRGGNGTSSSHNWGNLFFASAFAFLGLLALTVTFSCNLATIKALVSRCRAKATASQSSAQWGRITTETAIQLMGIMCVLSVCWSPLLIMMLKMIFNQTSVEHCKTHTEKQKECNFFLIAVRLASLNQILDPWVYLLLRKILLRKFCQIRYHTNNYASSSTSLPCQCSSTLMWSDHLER
In words: FLIPR calcium signal, HEK-293(EBNA) cells. The format is cell-based. Here is the method: as §1, §2, §3, §4

The test system of data set [7] is normotensive dogs. Kind of data set: Ocular surface hyperemia (OSH) in normotensive dogs. It counts as in vivo, dog. More on the design: maximum OSH score: scale not given here. Conditions: dosing once daily for 5 days. Here is the method:
(§5) (Z)-7-[(1R,2S,3R,5R)-5-Chloro-2-(3,5-dichloro-phenoxymethyl)-3-hydroxy-cyclopentyl]-hept-5-enoic acid (15b) was tested at multiple concentrations in normotensive dogs, dosing once daily for 5 days. At 0.05%, the maximum IOP decrease from baseline was 4.3 mmHg (30%) at 6 h; the maximum OSH score was 0.6 at 6 h. […] This compound was also tested in laser-induced hypertensive monkeys, using one single day dose. At 0.1%, the maximum IOP decrease from baseline was 6 mmHg (19%) at 6 h.
(§6) (Z)-7-[(1R,2S,3R,5R)-5-Chloro-2-(3,5-dichloro-phenoxymethyl)-3-hydroxy-cyclopentyl]-hept-5-enoic acid isopropyl ester (42b) was tested in normotensive dogs at 0.05%, dosing once daily for 5 days. The maximum intraocular pressure (IOP) decrease from baseline was 3 mmHg (19%) at 6 h; the maximum ocular surface hyperemia (OSH) score was 0.6 at 74 h. This compound was also tested in laser-induced hypertensive monkeys, using one single day dose. At 0.01%, the maximum IOP decrease from baseline was 6 mmHg (16%) at 6 h.

For data set [8], the system named is normotensive dogs. In words: Intraocular pressure (IOP) in normotensive dogs. It counts as in vivo, dog. To be noted: Canis lupus familiaris, topical, 120 h, dosing once daily for 5 days, read-out: maximum IOP decrease from baseline (percent). How it is done:
as §5, §6

Data set [9] relates to laser-induced hypertensive monkeys. In words: Intraocular pressure (IOP) in laser-induced hypertensive monkeys. It counts as in vivo, monkey. To be noted: Primates, topical, one single day dose, read-out: maximum IOP decrease from baseline (percent). How it is done: as §5, §6
In data set [10] the test system is normotensive dogs. In words: Intraocular pressure (IOP) in normotensive dogs. The format is in vivo, dog. Conditions: Canis lupus familiaris, topical, 120 h, dosing once daily for 5 days, read-out: maximum IOP decrease from baseline (percent). The source holds these as a separate data set.

T5 sequence (P43088 whole entry): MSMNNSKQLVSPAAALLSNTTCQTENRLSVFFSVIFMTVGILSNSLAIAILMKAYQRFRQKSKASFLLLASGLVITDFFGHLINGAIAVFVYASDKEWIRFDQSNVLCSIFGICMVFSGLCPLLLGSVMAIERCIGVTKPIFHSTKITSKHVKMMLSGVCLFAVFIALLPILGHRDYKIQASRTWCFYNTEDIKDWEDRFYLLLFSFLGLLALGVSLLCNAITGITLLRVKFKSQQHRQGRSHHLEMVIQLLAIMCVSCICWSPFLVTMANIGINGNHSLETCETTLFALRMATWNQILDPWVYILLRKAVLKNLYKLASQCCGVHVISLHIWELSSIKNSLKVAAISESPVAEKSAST
T4 sequence (P35408 whole entry): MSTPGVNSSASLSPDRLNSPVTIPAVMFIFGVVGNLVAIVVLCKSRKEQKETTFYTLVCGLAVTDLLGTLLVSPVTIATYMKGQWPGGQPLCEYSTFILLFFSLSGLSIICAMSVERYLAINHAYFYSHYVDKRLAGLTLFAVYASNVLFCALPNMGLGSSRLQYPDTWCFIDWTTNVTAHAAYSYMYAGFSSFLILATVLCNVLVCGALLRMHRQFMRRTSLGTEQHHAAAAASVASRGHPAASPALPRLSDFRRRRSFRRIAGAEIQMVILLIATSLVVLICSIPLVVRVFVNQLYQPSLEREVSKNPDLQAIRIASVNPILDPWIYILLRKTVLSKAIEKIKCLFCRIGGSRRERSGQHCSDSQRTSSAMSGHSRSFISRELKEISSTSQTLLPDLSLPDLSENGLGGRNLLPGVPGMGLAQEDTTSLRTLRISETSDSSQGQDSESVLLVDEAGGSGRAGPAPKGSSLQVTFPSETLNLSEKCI
T2 sequence (P43116 whole entry): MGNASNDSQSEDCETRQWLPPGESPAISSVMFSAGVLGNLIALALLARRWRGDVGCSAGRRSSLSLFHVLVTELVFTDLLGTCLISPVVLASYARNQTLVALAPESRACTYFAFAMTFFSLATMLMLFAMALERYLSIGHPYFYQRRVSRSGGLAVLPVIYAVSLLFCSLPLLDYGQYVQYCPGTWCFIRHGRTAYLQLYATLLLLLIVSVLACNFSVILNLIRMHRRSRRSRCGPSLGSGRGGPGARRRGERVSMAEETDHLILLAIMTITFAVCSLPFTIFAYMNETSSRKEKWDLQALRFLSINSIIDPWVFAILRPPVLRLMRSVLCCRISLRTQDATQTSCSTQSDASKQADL

As for `COC(=O)CCC/C=C\C[C@@H]1[C@@H](COc2cc(Cl)cc(Cl)c2)[C@H](O)C[C@H]1Cl` [Example 11, (Z)-7-[(1R,2S,3R,5R)-5-Chloro-2-(3,5-dichloro-phenoxymethyl)-3-hydroxy-cyclopentyl]-hept-5-enoic acid methyl ester], the EC50 in data set [1] (Table 1, first part, triplicate, read-out: functional data (EC50) hDP) is more than 10 µM; in data set [1] (Table 1, second part, quantity not given, values match functional data (EC50) of first part, read-out: Other Receptors hDP), more than 10 µM; in data set [2] it was 0.616 µM; in data set [3] (Table 1, first part, triplicate, read-out: functional data (EC50) hTP), more than 10 µM; in data set [3] (Table 1, second part, quantity not given, values match functional data (EC50) of first part, read-out: Other Receptors hTP), more than 10 µM; in data set [4] (Table 1, first part, triplicate, read-out: functional data (EC50) hEP4), more than 10 µM. Further, the EC50 in data set [4] (Table 1, second part, read-out: hEP4 flipr EC50) was more than 10 µM; in data set [5] (Table 1, first part, triplicate, read-out: functional data (EC50) hFP), more than 10 µM; in data set [5] (Table 1, second part, quantity not given, values match functional data (EC50) of first part, read-out: Other Receptors hFP) it was more than 10 µM; in [6] (Table 1, first part, data represents a single experiment, read-out: functional data (EC50) hEP3A*), 9.87 µM; in data set [6] (Table 1, second part, quantity not given, values match functional data (EC50) of first part, read-out: Other Receptors hEP3), 9.87 µM.
For `O=C(O)CCC/C=C\C[C@@H]1[C@@H](COc2ccc(CO)cc2)[C@H](O)C[C@H]1Cl` [Example 43, (Z)-7-[(1R,2S,3R,5R)-5-Chloro-3-hydroxy-2-(4-hydroxymethyl-phenoxymethyl)-cyclopentyl]-hept-5-enoic acid], the “maximum OSH score” value in data set [7] (0.1%) is on record as 0.6. The “time of maximum OSH score” value in data set [7] (0.1%) is on record as 98 h. Also, the figures for the inhibition in vivo at 0.1 % in data set [8] and in [9] were 20% and 6%, respectively.
In the case of `CC(C)OC(=O)CCC/C=C\C[C@@H]1[C@@H](COc2cc(Cl)cc(Cl)c2)[C@H](O)C[C@H]1Cl` [Example 67, (Z)-7-[(1R,2S,3R,5R)-5-Chloro-2-(3,5-dichloro-phenoxymethyl)-3-hydroxy-cyclopentyl]-hept-5-enoic acid isopropyl ester], in data set [7] (0.05%), the “maximum OSH score” value was 0.6 and the “time of maximum OSH score” value was 74 h. In data set [8] (0.05%), the inhibition in vivo at 0.05 % was 19%. Moreover, in data set [9] (0.01%), the inhibition in vivo at 0.01 % worked out at 16%.
`CC(C)OC(=O)CCC/C=C\C[C@@H]1[C@@H](COc2cc(C(F)(F)F)cc(C(F)(F)F)c2)[C@H](O)C[C@H]1Cl` [Example 68, (Z)-7-[(1R,2S,3R,5R)-2-(3,5-Bis-trifluoromethyl-phenoxymethyl)-5-chloro-3-hydroxy-cyclopentyl]-hept-5-enoic acid isopropyl ester]: in [7] (0.03%), the “maximum OSH score” value was 0.7 and the “time of maximum OSH score” value is given as 78 h. Further, in data set [10], the inhibition in vivo at 0.03 % was found to be 14%. Moreover, the inhibition in vivo at 0.03 % in data set [9] (0.03%) is 11%.
As for `CC(C)OC(=O)CCC/C=C\C[C@@H]1[C@@H](COc2cccc(C(F)(F)F)c2)[C@H](O)C[C@H]1Cl` [Example 69, (Z)-7-[(1R,2S,3R,5R)-5-Chloro-3-hydroxy-2-(3-trifluoromethyl-phenoxymethyl)-cyclopentyl]-hept-5-enoic acid isopropyl ester], in data set [7] (0.1%), the “maximum OSH score” value was 0.6 and the “time of maximum OSH score” value amounted to 50 h. Besides, the inhibition in vivo at 0.1 % in data set [8] worked out at 19%. In data set [9], the inhibition in vivo at 0.1 % came out at 14%.
As to `Cc1cc(C)cc(OC[C@@H]2[C@@H](C/C=C\CCCC(=O)OC(C)C)[C@H](Cl)C[C@H]2O)c1` [Example 70, (Z)-7-[(1R,2S,3R,5R)-5-Chloro-2-(3,5-dimethyl-phenoxymethyl)-3-hydroxy-cyclopentyl]-hept-5-enoic acid isopropyl ester], in [7] (0.1%), the “maximum OSH score” value is listed as 0.9. Further, in data set [7] (0.1%), the “time of maximum OSH score” value came to 74 h. For the same compound, the results for the inhibition in vivo at 0.1 % in [8] and in [9] were 30% and 23%, respectively.
On the same counts, the results for `CC(C)OC(=O)CCC/C=C\C[C@@H]1[C@@H](COc2ccc(CO)cc2)[C@H](O)C[C@H]1Cl` [Example 71, (Z)-7-[(1R,2S,3R,5R)-5-Chloro-3-hydroxy-2-(4-hydroxymethyl-phenoxymethyl)-cyclopentyl]-hept-5-enoic acid isopropyl ester] are 0.6, 30 h, 33% and 16%.
